In patent US20250052749A1, “SYSTEMS AND METHODS OF SELECTING COMPOUNDS THAT INDUCE CONFORMATIONAL CHANGES IN MUTANT CEREBLON” (BRISTOL-MYERS SQUIBB COMPANY, priority 2021, published 2025):
“Also recorded” adds a separate entry of the source.

Key:
Cereblon = Cereblon (Homo sapiens, UniProt Q96SW2); test: Cereblon binding affinity; details: CELMoD affinity for Cereblon compared with Pomalidomide/IMiD
Ikaros/Cereblon/DDB1 = target: T1, Ikaros/Cereblon/DDB1 (Homo sapiens, UniProt Q96SW2); test: cryo-EM of drug-mediated Ikaros recruitment to Cereblon-DDB1; details: wild-type Cereblon/DDB1, FIG. 4C; result in words
T1 construct: human cereblon (amino acids 5-442); ZZ-domain-6×His-thrombin site (cleaved yes); made in house; host or cells: SF9 insect cells (CRBN-DDB1); E. coli BL21 (DE3) Star (Ikaros)
Method: (§1) Frozen 20 mg/mL cereblon-DDB1 complexes were thawed and diluted to 5 mg/mL with buffer containing 20 mM HEPES pH 7, 150 mM NaCl, 3 mM TCEP. Immediately prior to plunge-freezing in liquid ethane, samples are diluted 10-fold in the same buffer supplemented with 0.011% Lauryl Maltose-Neopentyl Glycol (LMNG) to limit complex dissociation. Quantifoil 300 mesh R1.2/1.3 UltrAuFoil Holey Gold Films were plasma cleaned for 7 seconds using a Solarus plasma cleaner (Gatan, Inc.) with a 75% nitrogen, 25% oxygen atmosphere at 15 W. Immediately prior to sample application, grids are further pre-treated with 4 μL solution containing 10 μM cereblon binding-deficient mutant Ikaros residues 140-196 Q146A G151N and blotted from behind with torn Whatman 1 filter paper. 4 μL dilute sample is applied, excess sample was blotted away for 4 s and vitrified by manual plunge freezing into a liquid ethane pool cooled by liquid nitrogen using a manual plunger in a 4° C. cold room >95% humidity. Samples containing IMiDs are prepared the same way, with 10× molar equivalent of drug yielding a buffer concentration 20 mM HEPES pH 7, 150 mM NaCl, 3 mM TCEP, <1% DMSO mixed 2 minutes prior to dilution and application to the grid. Similarly, Ikaros samples are prepared by incubation of 2-fold molar excess Ikaros 2 minutes prior to dilution and application to the grid. […]

Cereblon-DDB1 [1] = target: T2, Cereblon-DDB1 (Homo sapiens, UniProt Q96SW2); test: hydrogen-deuterium exchange mass spectrometry (HDX-MS) of Cereblon-DDB1 peptides; set-up: made in house; details: compared with unliganded DDB1-Cereblon; result in words
Method: For peptide identification, differential HDX-MS experiments were conducted as previously described with a few modifications (Chalmers, M. J., et al. (2006). Probing protein ligand interactions by automated hydrogen/deuterium exchange mass spectrometry. Analytical Chemistry, 78(4), 1005-1014). Peptides were identified using tandem MS (MS/MS) with an Orbitrap mass spectrometer (Q Exactive, ThermoFisher). Product ion spectra were acquired in data-dependent mode with the top five most abundant ions selected for the product ion analysis per scan event. The MS/MS data files were submitted to Mascot (Matrix Science) for peptide identification. […] The MASCOT search was repeated against a decoy (reverse) sequence and ambiguous identifications were ruled out and not included in the HDX peptide set. […]
Mass spectrometric data were acquired using an Orbitrap mass spectrometer (Exactive, ThermoFisher). […] The intensity weighted mean m/z centroid value of each peptide envelope was calculated and subsequently converted into a percentage of deuterium incorporation. […] Statistical significance for the differential HDX data is determined by an unpaired t-test for each time point, a procedure that is integrated into the HDX Workbench software (Pascal, B. D., et al. (2012). HDX workbench: software for the analysis of H/D exchange MS data. Journal of the American Society for Mass Spectrometry, 23(9), 1512-1521.). […]

Cereblon-DDB1 [2] = target: T2, Cereblon-DDB1; test: cryo-EM population analysis of open/closed Cereblon conformers with saturating IMiD/CELMoD; set-up: human cereblon (amino acids 5-442); ZZ-domain-6×His-thrombin site (cleaved yes); made in house; host or cells: SF9 insect cells; details: wild-type Cereblon-DDB1, saturating amount of drug, cryo-EM single-particle analysis
Method: as §1

P98A Cereblon-DDB1 = target: T3, P98A Cereblon-DDB1 (Homo sapiens, UniProt Q96SW2, P98A); test: cryo-EM of P98A mutant Cereblon saturated with drug along with Ikaros; details: for conformation of P98A Cereblon in presence of drug (open/closed) / recruitment of Ikaros Zf 2-3 to P98A mutant Cereblon: result in words; for recruitment of Ikaros Zf 2-3 to P98A mutant Cereblon: FIG. 9
T3 construct: human cereblon (amino acids 5-442); ZZ-domain-6×His-thrombin site (cleaved yes); made in house; host or cells: SF9 insect cells (CRBN-DDB1, by 'as before'); E. coli BL21 (DE3) Star (Ikaros)
Method: Frozen 20 mg/mL cereblon-DDB1 complexes were thawed and diluted to 5 mg/mL with buffer containing 20 mM HEPES pH 7, 150 mM NaCl, 3 mM TCEP. Immediately prior to plunge-freezing in liquid ethane, samples are diluted 10-fold in the same buffer supplemented with 0.011% Lauryl Maltose-Neopentyl Glycol (LMNG) to limit complex dissociation. Quantifoil 300 mesh R1.2/1.3 UltrAuFoil Holey Gold Films were plasma cleaned for 7 seconds using a Solarus plasma cleaner (Gatan, Inc.) with a 75% nitrogen, 25% oxygen atmosphere at 15 W. Immediately prior to sample application, grids are further pre-treated with 4 μL solution containing 10 μM cereblon binding-deficient mutant Ikaros residues 140-196 Q146A G151N and blotted from behind with torn Whatman 1 filter paper. 4 μL dilute sample is applied, excess sample was blotted away for 4 s and vitrified by manual plunge freezing into a liquid ethane pool cooled by liquid nitrogen using a manual plunger in a 4° C. cold room >95% humidity. Samples containing IMiDs are prepared the same way, with 10× molar equivalent of drug yielding a buffer concentration 20 mM HEPES pH 7, 150 mM NaCl, 3 mM TCEP, <1% DMSO mixed 2 minutes prior to dilution and application to the grid. Similarly, Ikaros samples are prepared by incubation of 2-fold molar excess Ikaros 2 minutes prior to dilution and application to the grid.
Cryo-EM data were collected on a Thermo-Fisher Talos Arctica transmission electron microscope operating at […] using parallel illumination conditions. Micrographs were acquired using a Gatan K2 Summit direct electron detector, operated in electron counting mode applying a total electron exposure of […]. The Leginon data collection software was used to collect 2912 micrographs at 36,000× nominal magnification (1.15 Å/pixel at the specimen level) with a nominal defocus set to −1.5 μm. Variation from the nominally set defocus due to a ˜5% tilt in the stage gave rise to a defocus range (this tilt was not intentional and required service to correct). Stage movement was used to target the center of sixteen 1.2 μm holes for focusing, and an image shift was used to acquire high magnification images in the center of each of the sixteen targeted holes.

[3] = P98A mutant Cereblon, saturated with drug along with Ikaros

O=C1CC[C@H](N2Cc3c(OCc4ccc(CN5CCOCC5)cc4)cccc3C2=O)C(=O)N1 [Compound 1, (S)-3-(4-((4-(morpholinomethyl)benzyl)oxy)-1-oxoisoindolin-2-yl)piperidine-2,6-dione]
improved affinity (Cereblon): approximately 20 fold
recruitment of Ikaros ZF1-2-3 to CRBN^closed (Ikaros/Cereblon/DDB1): is recruited to CRBN^closed
change in solvent accessibility (HDX differential) upon addition of drug (Cereblon-DDB1 [1]): affected solvency for both the sensor loop and residues within the Lon domain and HB
particles adopting CRBN^closed conformation (Cereblon-DDB1 [2]): ~50%

N#Cc1ccc(N2CCN(Cc3ccc(COc4cccc5c4CN([C@H]4CCC(=O)NC4=O)C5=O)cc3)CC2)c(F)c1 [Compound 2, (S)-4-(4-(4-(((2-(2,6-dioxopiperidin-3-yl)-1-oxoisoindolin-4-yl)oxy)methyl)benzyl)piperazin-1-yl)-3-fluorobenzonitrile]
particles adopting CRBN^closed conformation with Ikaros bound (P98A Cereblon-DDB1; [3]): 25%
conformation of P98A Cereblon in presence of drug (open/closed) (P98A Cereblon-DDB1; [3]): can overcome this mutation
recruitment of Ikaros Zf 2-3 to P98A mutant Cereblon (P98A Cereblon-DDB1): sufficiently recruits Ikaros Zf 2-3

Nc1cccc2c1C(=O)N(C1CCC(=O)NC1=O)C2=O (stereo not drawn) [Pomalidomide, reference compound]
conformation of P98A Cereblon in presence of drug (open/closed) (P98A Cereblon-DDB1; [3]): exclusively substrate-free open conformers; also recorded: cannot close
recruitment of Ikaros Zf 2-3 to P98A mutant Cereblon (P98A Cereblon-DDB1): insufficient
